The record followed here is ChEMBL document CHEMBL1649185, “Antibacterial activity of ultrashort cationic lipo-beta-peptides” (2009).

Holding throughout (format): functional
The test system of experiment [1] is Staphylococcus epidermidis. The experiment is described as follows: Antimicrobial activity against Staphylococcus epidermidis ATCC 14990 […].
The test system of the next experiment is Enterococcus faecalis. The experiment is described as follows: Antimicrobial activity against Enterococcus faecalis ATCC 29212 […].
Experiment [2] deals with Stenotrophomonas maltophilia. Put plainly: Antimicrobial activity against Stenotrophomonas maltophilia CAN-ICU 62584 […].
Another experiment has as its system Streptococcus pneumoniae. Put plainly: Antimicrobial activity against Streptococcus pneumoniae ATCC 49619 […].
Experiment [3] deals with Escherichia coli. The experiment is described as follows: Antimicrobial activity against Escherichia coli CAN-ICU 61714 […].
The subject of experiment [4] is Staphylococcus epidermidis. The experiment is described as follows: Antimicrobial activity against methicillin-resistant Staphylococcus epidermidis CAN-ICU 61589 […].
For experiment [5], the system named is Pseudomonas aeruginosa. Put plainly: Antimicrobial activity against Pseudomonas aeruginosa ATCC 27853 […].
Experiment [6] concerns Staphylococcus aureus. Put plainly: Antimicrobial activity against Staphylococcus aureus ATCC 29213 […].
The subject of experiment [7] is Escherichia coli. Put plainly: Antimicrobial activity against Escherichia coli ATCC 25922 by […].
The test system of another experiment is Acinetobacter baumannii. The experiment is described as follows: Antimicrobial activity against Acinetobacter baumannii CAN-ICU 63169 by […].
A further experiment relates to Enterococcus faecium. The experiment is described as follows: Antimicrobial activity against Enterococcus faecium ATCC 27270 […].
Experiment [8] deals with Escherichia coli. Put plainly: Antimicrobial activity against Escherichia coli CAN-ICU 63074 […].
For the next experiment, the system named is Klebsiella pneumoniae. The experiment is described as follows: Antimicrobial activity against Klebsiella pneumoniae ATCC 13883 […].
Experiment [9] has as its system Staphylococcus aureus. The experiment is described as follows: Antimicrobial activity against methicillin-resistant Staphylococcus aureus ATCC 33592 […].
The subject of experiment [10] is Pseudomonas aeruginosa. Put plainly: Antimicrobial activity against Pseudomonas aeruginosa CAN-ICU 62308 […].

Values after ≈ are worked out from the molar mass of the structure shown. Square brackets hold non-standard residues; d marks the D form. Peptide text beside a SMILES is read from it. * marks the point of attachment. Palmitoyl = CCCCCCCCCCCCCCCC(=O)*; Lauroyl = CCCCCCCCCCCC(=O)*

As a reminder, the MIC is the lowest concentration found to suppress growth. Low values mean inhibition by little substance, high ones a need for much substance. With `CCCCCCCCCCCCCCCC(=O)N[C@@H](CCCCN)C(=O)N[C@@H](CCCCN)C(=O)N[C@H](CCCCN)C(=O)N[C@@H](CCCCN)C(=O)O` (Palmitoyl-KK[dK]K-OH), the MIC in [1] was 4 µg/mL (≈ 5.2 µM); with Enterococcus faecalis, 32 µg/mL (≈ 41.6 µM); in [2], 256 µg/mL (≈ 333 µM); in the experiment with Streptococcus pneumoniae, over 32 µg/mL; against Escherichia coli [3], 32 µg/mL (≈ 41.6 µM); in experiment [4], 8 µg/mL (≈ 10.4 µM). Besides, the MIC in the experiment on Pseudomonas aeruginosa [5] is 32 µg/mL (≈ 41.6 µM); against Staphylococcus aureus [6], 16 µg/mL (≈ 20.8 µM); in the experiment on Escherichia coli [7], 32 µg/mL (≈ 41.6 µM); against Acinetobacter baumannii, 256 µg/mL (≈ 333 µM); in the experiment with Enterococcus faecium, 16 µg/mL (≈ 20.8 µM); in the experiment on Escherichia coli [8] it was 32 µg/mL (≈ 41.6 µM). Moreover, the MIC against Klebsiella pneumoniae came out at 256 µg/mL (≈ 333 µM); with Staphylococcus aureus [9] it was 16 µg/mL (≈ 20.8 µM); against Pseudomonas aeruginosa [10], 256 µg/mL (≈ 333 µM).

Take `CCCCCCCCCCCCCCCC(=O)N[C@H](CCCN)CC(=O)N[C@H](CCCN)CC(=O)N[C@H](CCCN)CC(=O)N[C@H](CCCN)CC(=O)O`: the MIC was 4 µg/mL (≈ 5.2 µM) in experiment [1]; 32 µg/mL (≈ 41.6 µM) in the experiment with Enterococcus faecalis; 256 µg/mL (≈ 333 µM) in experiment [2]; 128 µg/mL (≈ 166 µM) in the experiment on Streptococcus pneumoniae; 32 µg/mL (≈ 41.6 µM) in the experiment on Escherichia coli [3]; 4 µg/mL (≈ 5.2 µM) in experiment [4]. For the same compound, the MIC in the experiment with Pseudomonas aeruginosa [5] was 64 µg/mL (≈ 83.2 µM); against Staphylococcus aureus [6], 16 µg/mL (≈ 20.8 µM); against Escherichia coli [7], 16 µg/mL (≈ 20.8 µM); with Acinetobacter baumannii, 256 µg/mL (≈ 333 µM); with Enterococcus faecium, 16 µg/mL (≈ 20.8 µM); with Escherichia coli [8], 32 µg/mL (≈ 41.6 µM). In addition, the MIC turned out to be 128 µg/mL (≈ 166 µM) with Klebsiella pneumoniae, 16 µg/mL (≈ 20.8 µM) in the experiment on Staphylococcus aureus [9] and 128 µg/mL (≈ 166 µM) with Pseudomonas aeruginosa [10].

In the case of `CCCCCCCCCCCC(=O)N[C@H](CCCN)CC(=O)N[C@@H](CC(=O)N[C@@H](CC(=O)N[C@H](CCCN)CC(=O)O)C(C)C)C(C)C`, the MIC in [1] turned out to be 16 µg/mL (≈ 23.4 µM); in the experiment with Enterococcus faecalis, 64 µg/mL (≈ 93.7 µM); in experiment [2], 256 µg/mL (≈ 375 µM); against Streptococcus pneumoniae, 128 µg/mL (≈ 187 µM); against Escherichia coli [3], 64 µg/mL (≈ 93.7 µM); in [4], 32 µg/mL (≈ 46.9 µM). The MIC in the experiment on Pseudomonas aeruginosa [5] was 128 µg/mL (≈ 187 µM); against Staphylococcus aureus [6], 32 µg/mL (≈ 46.9 µM); against Escherichia coli [7], 64 µg/mL (≈ 93.7 µM); in the experiment on Acinetobacter baumannii it was over 128 µg/mL; in the experiment with Enterococcus faecium, 32 µg/mL (≈ 46.9 µM); against Escherichia coli [8], 64 µg/mL (≈ 93.7 µM). Besides, the results for the MIC in the experiment with Klebsiella pneumoniae, in the experiment on Staphylococcus aureus [9] and against Pseudomonas aeruginosa [10] were 256 µg/mL (≈ 375 µM), 32 µg/mL (≈ 46.9 µM) and 128 µg/mL (≈ 187 µM), respectively.

`CCCCCCCCCCCCCCCC(=O)N[C@H](CCCN)CC(=O)NCC(=O)NCC(=O)N[C@H](CCCN)CC(=O)O`: the MIC in experiment [1] came to 8 µg/mL (≈ 12.8 µM); in the experiment with Enterococcus faecalis, 32 µg/mL (≈ 51 µM); in experiment [2], 256 µg/mL (≈ 408 µM); in the experiment with Streptococcus pneumoniae it was 128 µg/mL (≈ 204 µM); in the experiment with Escherichia coli [3], 32 µg/mL (≈ 51 µM); in experiment [4], 16 µg/mL (≈ 25.5 µM). Besides, the minimum inhibitory concentration (MIC) is 64 µg/mL (≈ 102 µM) in the experiment on Pseudomonas aeruginosa [5]; 16 µg/mL (≈ 25.5 µM) against Staphylococcus aureus [6]; 32 µg/mL (≈ 51 µM) in the experiment on Escherichia coli [7]; 128 µg/mL (≈ 204 µM) against Acinetobacter baumannii; 32 µg/mL (≈ 51 µM) in the experiment with Enterococcus faecium; 32 µg/mL (≈ 51 µM) against Escherichia coli [8]. Moreover, the figures for the minimal inhibitory concentration (MIC) with Klebsiella pneumoniae, in the experiment with Staphylococcus aureus [9] and with Pseudomonas aeruginosa [10] were 128 µg/mL (≈ 204 µM), 32 µg/mL (≈ 51 µM) and over 64 µg/mL, respectively.

For `CCCCCCCCCCCC(=O)N[C@@H](CCCCN)C(=O)N[C@@H](CC(C)C)C(=O)N[C@H](CC(C)C)C(=O)N[C@@H](CCCCN)C(=O)O` (Lauroyl-KL[dL]K-OH), the MIC in experiment [1] was 8 µg/mL (≈ 11.7 µM); in the experiment on Enterococcus faecalis, 32 µg/mL (≈ 46.9 µM); in experiment [2] it was over 256 µg/mL; against Streptococcus pneumoniae, 64 µg/mL (≈ 93.7 µM); with Escherichia coli [3], 64 µg/mL (≈ 93.7 µM); in experiment [4], 16 µg/mL (≈ 23.4 µM). In addition, the MIC in the experiment with Pseudomonas aeruginosa [5] is 128 µg/mL (≈ 187 µM); with Staphylococcus aureus [6], 16 µg/mL (≈ 23.4 µM); with Escherichia coli [7] it was 64 µg/mL (≈ 93.7 µM); with Acinetobacter baumannii, over 256 µg/mL; against Enterococcus faecium, 32 µg/mL (≈ 46.9 µM); against Escherichia coli [8], 64 µg/mL (≈ 93.7 µM). The MIC against Klebsiella pneumoniae was over 64 µg/mL; against Staphylococcus aureus [9] it was 16 µg/mL (≈ 23.4 µM); in the experiment on Pseudomonas aeruginosa [10] it was 128 µg/mL (≈ 187 µM).

Consider GENTAMICIN, for which the MIC in experiment [1] is 0.25 µg/mL; in experiment [2], over 512 µg/mL; against Streptococcus pneumoniae, 4 µg/mL; with Escherichia coli [3], 128 µg/mL; in experiment [4] it was 32 µg/mL; with Pseudomonas aeruginosa [5], 8 µg/mL. Further, the MIC in the experiment on Staphylococcus aureus [6] worked out at 1 µg/mL; in the experiment with Escherichia coli [7], 1 µg/mL; with Acinetobacter baumannii it was 128 µg/mL; against Escherichia coli [8], 8 µg/mL; against Klebsiella pneumoniae, 0.25 µg/mL; in the experiment on Staphylococcus aureus [9], 2 µg/mL. In the experiment on Pseudomonas aeruginosa [10], this compound gave an MIC of 128 µg/mL.
